The values below come from ChEMBL document CHEMBL1146719, “Lysyl 4-aminobenzoic acid derivatives as potent small molecule mimetics of plasminogen kringle 5” (Bioorg Med Chem Lett, 2004).

The species named for this test is Homo sapiens. The test can be described thus: Inhibition of VEGF-stimulated migration of human microvascular endothelial cells. The format is functional, cell-based. The settings on record: Endothelial cell.

The structures appear in SMILES notation. Peptide text beside a SMILES is read from it.

By IC50 is commonly meant the concentration that gives 50% inhibition. A higher IC50 goes with weaker potency in that assay. In turn, `CC(=O)N[C@@H](CCCCN)C(=O)N[C@@H](CC(C)C)C(=O)N[C@@H](Cc1ccc(O)cc1)C(=O)N[C@@H](CC(=O)O)C(=O)O` (Ac-KLYD-OH) registered a half-maximal inhibitory concentration (IC50) of 1.2 nM.
